According to patent US5985900A, “Metalloproteinase inhibitors, pharmaceutical compositions containing them and their pharmaceutical uses” (Agouron Pharmaceuticals, Inc., priority 1998, dated 1999):

Assays:
Format in all cases: biochemical
[1] = biological target: human stromelysin (Sln) (Homo sapiens, UniProt P08254); experiment: In vitro MMP inhibition assay (hydrolysis of fluorogenic MCA peptide substrate), stromelysin; details: Table 1; Ki,app; MCA peptide substrate 10 μM, 37° C., pH 7.5, 2% DMSO; read-out: Sin Ki
Procedure: The catalytic domain of human stromelysin (Sln) was obtained by expression and purification of a C-terminally truncated prostromelysin-1 from E. coli host BL21 (see Marcy et al. Biochem., 1991, 30, 6476). The subsequent activation of the mature form (Sln) was completed with 2 mM APMA for 1 hour at 37° C., followed by separation using a sizing column.
(§1) Assays were performed in assay buffer (50 mM Tricine pH 7.5, 200 mM sodium chloride, 10 mM calcium chloride, 0.5 mM zinc acetate containing 2% dimethyl sulfoxide (DMSO)) once the substrate and inhibitor were diluted into it. Stock solutions of inhibitors were prepared in 100% DMSO. Stock solutions of the substrate were prepared in 100% DMSO at a concentration of 6 mM.
(§2) The assay method was based on the hydrolysis of MCA-Pro-Leu-Gly-Leu-DPA-Ala-Arg-NH2 (American Peptide Co.) at 37° C. (see Knight, C. G. et al., FEBS, 1992, 296, 263-266). The fluorescence changes were monitored with a Perkin-Elmer LS-50B fluorimeter using an excitation wavelength of 328 nm and an emission wavelength of 393 nm. The substrate concentration used in the assays was 10 μM. The inhibitor was diluted into the assays from a solution in 100% DMSO, and controls substituted an equal volume of DMSO so that the final DMSO concentration from inhibitor and substrate dilution in all assays was 2%. […] Proper determination of steady-state rates of substrate cleavage required assay lengths of 60 minutes to allow for complete equilibration of the enzyme-inhibitor complex.
(§3) The Km for the MCA peptide substrate with the matrix metalloproteinases is quite high and exceeds its solubility under assay conditions. Consequently, the apparent Ki (Ki,app) was determined to describe the strength of inhibition. However, in this case, Ki,app would be essentially equal to Ki since [S]<<Km. For the determination of Ki,app, the concentration of the inhibitor was varied at a constant and low concentration of substrate and the steady-state rates of fluorescence change determined. In most cases absorptive quench due to the presence of ligand was not observed. For slow-binding inhibitors, onset of inhibition curves were collected for at least 45 minutes so that equilibrium was established. Steady-state rates of fluorescence change were obtained by fitting a curve to an equation for a single exponential decay containing a linear phase. The fitted value of the linear phase was taken as the steady-state rate. The steady-state rates were fitted to the Michaelis equation describing competitive inhibition by non-linear methods. Data resulting from tight-binding inhibition was analyzed, and Ki,app determined by fitting the data to the tight-binding equation of Morrison (Biochem. Biophys. Acta, vol. 185, pp. 269-286 (1969)) by non-linear methods.
(§4) All Ki values are in nM units.

[2] = biological target: human progelatinase A (GelA) (Homo sapiens, UniProt P08253); experiment: In vitro MMP inhibition assay (hydrolysis of fluorogenic MCA peptide substrate), gelatinase A; details: Table 1; Ki,app; MCA peptide substrate 10 μM, 37° C., pH 7.5, 2% DMSO; read-out: Gel A
Procedure: The catalytic and fibronectin-like portion of human progelatinase A (GelA) was expressed as a fusion protein with ubiquitin in E. Coli. Assays were carried out on autocatalytically activated material.
as §1, §2, §3, §4

[3] = biological target: T1, human collagenase-3 (Coll3) (Homo sapiens, UniProt P45452); experiment: In vitro MMP inhibition assay (hydrolysis of fluorogenic MCA peptide substrate), collagenase-3; details: Table 1; Ki,app; MCA peptide substrate 10 μM, 37° C., pH 7.5, 2% DMSO
T1 construct: catalytic domain liberated with APMA
Procedure: The propeptide and catalytic domain of human collagenase-3 (Coll3) was expressed in E. coli as an N-terminal fusion protein with ubiquitin. After purification of the fusion from inclusion bodies, the catalytic domain was liberated by treatment with 2 mM APMA at room temperature overnight. Final purification was completed using copper chelate chromatography.
as §1, §2, §3, §4

human stromelysin (Sln), sequence (P08254 100-272 limits assumed): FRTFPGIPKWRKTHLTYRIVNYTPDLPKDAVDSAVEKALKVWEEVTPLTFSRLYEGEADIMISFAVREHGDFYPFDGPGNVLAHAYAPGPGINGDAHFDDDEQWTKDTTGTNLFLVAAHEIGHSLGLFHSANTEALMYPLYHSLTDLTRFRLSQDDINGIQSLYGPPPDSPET
human progelatinase A (GelA), sequence (P08253 110-446 limits assumed): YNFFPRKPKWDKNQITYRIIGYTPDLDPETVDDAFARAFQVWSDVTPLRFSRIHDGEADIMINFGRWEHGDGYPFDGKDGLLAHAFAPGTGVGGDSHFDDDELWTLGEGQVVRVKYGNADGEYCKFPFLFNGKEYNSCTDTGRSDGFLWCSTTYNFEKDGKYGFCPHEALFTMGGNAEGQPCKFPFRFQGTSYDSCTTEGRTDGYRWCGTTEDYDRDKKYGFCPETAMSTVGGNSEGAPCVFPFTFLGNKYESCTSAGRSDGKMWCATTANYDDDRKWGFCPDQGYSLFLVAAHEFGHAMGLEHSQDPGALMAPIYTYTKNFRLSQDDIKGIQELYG

Row | Structure (SMILES) | Ki [1] | Ki [2] | Ki [3]
1 | CC(C)(SCc1ccccn1)[C@@H](NS(=O)(=O)c1ccc(Oc2ccc(F)cc2)cc1)C(=O)O [Example 3c, N-[4-(4-Fluorophenoxy)benzenesulfonyl]--S--[(pyrid-2-yl)methyl]-D-penicillamine] | 2550 nM | 44 nM | 110 nM
2 | Cc1ccc(Oc2ccc(S(=O)(=O)N[C@@H](C(=O)O)C(C)(C)SCc3ccccn3)cc2)cc1 [Example 3g, N-[4-(4-Methylphenoxy)benzenesulfonyl]--S--[(pyrid-2-yl)methyl]-D-penicillamine] | 1310 nM | 10 nM | 117 nM
3 | CC(C)(SCc1ccccc1)[C@@H](NS(=O)(=O)c1ccc(Oc2ccccc2)cc1)C(=O)O [Example 3m, S-Benzyl--N--[4-phenoxybenzenesulfonyl]-D-penicillamine] | 1000 nM | 46 nM | 907 nM
4 | CC(C)(SCc1nccn1Cc1ccccc1)[C@@H](NS(=O)(=O)c1ccc(Oc2ccc(Br)cc2)cc1)C(=O)O [Example 3b, N-[4-(4-Bromophenoxy)benzenesulfonyl]--S--[(1-benzyl-1H-imidazol-2-yl)methyl]-D-penicillamine] | 558 nM | 1.8 nM | 108 nM
5 | Cc1cc(CSC(C)(C)[C@@H](NS(=O)(=O)c2ccc(Oc3ccc(Br)cc3)cc2)C(=O)O)no1 [Example 3k, N-[4-(4-Bromophenoxy)benzenesulfonyl]--S--[(5-methylisoxazol-3-yl)-methyl]-D-penicillamine] | 2600 nM | 4.2 nM | 209 nM
6 | CC(C)(SCC(=O)O)[C@@H](NS(=O)(=O)c1ccc(Oc2ccc(F)cc2)cc1)C(=O)O [Example 5, S-Carboxymethyl--N--[4-(4-fluorophenoxy)benzenesulfonyl]-D-penicillamine] | 27300 nM | 1550 nM | 1620 nM
7 | CC(C)(SCc1nccn1Cc1ccccc1)[C@@H](NS(=O)(=O)c1ccc(Oc2ccc(F)cc2)cc1)C(=O)O [Example 3a, S--[(1-Benzyl-1H-imidazol-2-yl)methyl]--N--[4-(4-fluorophenoxy)benzenesulfonyl]-D-penicillamine] | 1300 nM | 11 nM | 200 nM

Continued, values first:

Row | Ki [1] | Ki [2] | Ki [3] | Structure (SMILES)
8 | 0.24 nM | – | 0.013 nM | Cc1cc(CSC(C)(C)[C@@H](NS(=O)(=O)c2ccc(Oc3ccc(Br)cc3)cc2)C(=O)NO)no1 [Example 9d, 2(S)--N-hydroxy-3-methyl-3-(5-methylisoxazol-3-yl)methylsulfanyl-2-[(4-(4-bromophenoxy)benzenesulfonyl)amino]butanamide]
9 | 97000 nM | 890 nM | 7000 nM | Cc1cc(CSC(C)(C)[C@@H](NS(=O)(=O)c2ccc(Sc3ccncc3)cc2)C(=O)O)no1 [Example 4c, S--[(5-Methylisoxazol-3-yl)methyl]--N--[4(pyrid-4-yl)sulfanylbenzenesulfonyl]-D-penicillamine]
10 | 2.2 nM | 0.069 nM | 0.067 nM | CSC(C)(C)[C@@H](NS(=O)(=O)c1ccc(Oc2ccccc2)cc1)C(=O)NO [Example 9a, 2(S)--N--Hydroxy-3-methyl-3-methylsulfanyl-2-[(4-phenoxybenzenesulfonyl)amino]butanamide]
11 | 0.29 nM | – | 0.015 nM | CC(C)(SCc1ccccn1)[C@@H](NS(=O)(=O)c1ccc(Oc2ccc(I)cc2)cc1)C(=O)NO [Example 9f, 2(S)--N-hydroxy-3-methyl-3-(pyrid-2-yl)methylsulfanyl-2-[(4-(4-iodophenoxy)benzenesulfonyl)amino]butanamide]
12 | 680 nM | 7.1 nM | 153 nM | CC(C)(SCc1ccccn1)[C@@H](NS(=O)(=O)c1ccc(Oc2ccc(-c3ccoc3)cc2)cc1)C(=O)O [Example 4e, N-[4-(4-(Furan-3-yl)phenoxy)benzenesulfonyl]--S--[(pyrid-2-yl)methyl]-D-penicillamine]
